The values that follow come from patent US12156862B2, “Medicaments for the treatment of vasoconstriction related diseases or disorders” (Sulfateq B.V., priority 2017, dated 2024).

The subject of test [1] is α1 adrenoceptor. The experiment in a line: Phenylephrine-induced constriction of isolated porcine intrarenal arteries (myography). The protocol: (§1) Porcine kidneys were obtained from a local slaughterhouse (Kroon Vlees, Gotenburgweg 30, 9723 TM Groningen. The Netherlands) and transported on ice in normal physiological Krebs buffer containing 120 mM NaCl, 6 mM KCl, 2.5 mM CaCl2×2H2O, 1.2 mM MgCl2×6H2O, 1.2 mM NaH2PO4×H2O, 25 mM NaHCO3 and 11.4 mM D-(+)-Glucose monohydrate (all ingredients were purchased from Merck) in ultrapure water.
(§2) The renal artery tree was dissected from the kidney, cleaned of surrounding connective tissue and cut into equally-sized ring segments (2 mm in length). In some rings, endothelium denudation was performed by gentle rubbing of the intimal surface with a paper clip. Rings were mounted in organ baths as described previously (Buikema et al., 2000). Arterial rings were washed thoroughly by replacing Krebs buffer and allowed to equilibrate for a period of 60 min under 1.4 g of resting tension before they were assessed for viability by inducing 2 subsequent constrictions with KCl (60 mM). […] After washout and stabilization, rings were treated for 30 minutes by incubation with vehicle (0.1% DMSO), SUL-121, SUL-150 or SUL-151, followed by subsequent incubation with cumulative doses of phenylephrine.
Dose-dependent constriction responses to phenylephrine (10^−8M-10^−4M) were recorded in said isolated porcine intrarenal arteries. Buffer was warmed to 37° C. and aerated with 95% O2 and 5% CO2 before use.
Vascular constriction responses are expressed as percentage of final response to KCl. Data are expressed as mean±SEM. *p<0.05.
To explore the effects of the enantiomers of (6-hydroxy-2,5,7,8-tetramethylchroman-2-yl)(piperazin-1-yl)methanone (SUL-150 and SUL-151) on constriction of isolated porcine intrarenal arteries, cumulative dose response curves to the α1 adrenoceptor agonist phenylephrine (PE) were constructed in the presence and absence of SUL-150 and SUL-151.

Test [2] addresses T1, human α1 adrenoceptor subtype B (Homo sapiens, UniProt P35368).
T1 construct: expressed in transfected cells; host or cells: CHO-K1
T1 sequence (P35368 1-520): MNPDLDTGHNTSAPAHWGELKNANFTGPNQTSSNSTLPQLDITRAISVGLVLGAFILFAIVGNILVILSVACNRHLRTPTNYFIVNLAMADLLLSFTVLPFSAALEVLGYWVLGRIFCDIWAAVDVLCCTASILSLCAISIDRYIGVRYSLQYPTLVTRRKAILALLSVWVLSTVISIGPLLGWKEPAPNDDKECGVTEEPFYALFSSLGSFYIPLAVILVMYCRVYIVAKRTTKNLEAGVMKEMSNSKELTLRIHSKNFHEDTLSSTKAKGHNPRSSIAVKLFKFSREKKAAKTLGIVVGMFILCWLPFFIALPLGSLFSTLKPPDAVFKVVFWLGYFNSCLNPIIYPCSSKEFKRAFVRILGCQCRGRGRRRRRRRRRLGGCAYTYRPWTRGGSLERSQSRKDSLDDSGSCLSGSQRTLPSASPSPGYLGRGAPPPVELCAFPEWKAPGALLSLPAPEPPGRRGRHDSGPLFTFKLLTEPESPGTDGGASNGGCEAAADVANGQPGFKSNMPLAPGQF
The experiment in a line: Phenylephrine-induced intracellular calcium (FLIPR Calcium 6) in CHO cells, α1B. It is filed as cell-based. The protocol: CHO-K1 cells were stably transfected with a plasmid containing human al-AR subtypes A, B and D in separate cell lines in DMEM-F12 medium with 10% FBS, 1% penicillin-streptomycin and 200 μg/mL Geneticin (G418, Invitrogen, Carlsbad, CA).
On the next day, CHO cells were treated with either vehicle (0.1% DMSO) or SUL-121 enantiomers for 30 min at 37° C. and stimulated with a 3-fold dilution series of PE (20 μM-100 pM). [Ca^2], was measured using the fluorescent FLIPR Calcium 6 assay kit (Molecular Devices) in immortalized CHO cells stably expressing the α1 adrenoceptor.
Initially, calcium responses induced by non-cumulative concentration series of phenylephrine were investigated using fluorescent measurements in α1A adrenoceptor-overexpressing CHO cells treated with SUL-150 and SUL-151 (FIG. 4). Fluorescent measurement data was processed and analyzed in SoftMax Pro 7 and expressed as % of baseline AUC with a 3-fold multiplier using an average of first 10 measurement points as baseline.

The target in a further test is T2, α1A adrenoceptor (Homo sapiens, UniProt P35348).
T2 construct: expressed in transfected cells; host or cells: CHO-K1
T2 sequence (P35348 1-466): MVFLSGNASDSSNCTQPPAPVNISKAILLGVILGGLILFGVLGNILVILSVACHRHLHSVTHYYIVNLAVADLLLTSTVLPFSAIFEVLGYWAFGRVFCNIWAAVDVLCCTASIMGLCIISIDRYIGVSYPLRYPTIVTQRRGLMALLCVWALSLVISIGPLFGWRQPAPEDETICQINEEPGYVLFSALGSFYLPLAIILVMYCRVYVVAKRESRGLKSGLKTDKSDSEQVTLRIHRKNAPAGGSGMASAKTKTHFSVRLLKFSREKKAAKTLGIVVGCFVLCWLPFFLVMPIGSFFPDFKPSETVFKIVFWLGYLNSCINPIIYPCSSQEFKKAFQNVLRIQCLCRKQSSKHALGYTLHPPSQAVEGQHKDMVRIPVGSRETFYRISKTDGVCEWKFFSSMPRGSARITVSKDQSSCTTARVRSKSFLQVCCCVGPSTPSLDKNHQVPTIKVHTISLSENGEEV
Put plainly: Radiolabeled prazosin displacement binding assay in α1A adrenoceptor transgenic CHO cells. The settings on record: [7-Methoxy-3H]-prazosin. From the text: We therefore explored whether SUL-150 could directly interact with the α1 adrenoceptor as a receptor antagonist.

Test [3] concerns α1 adrenoceptor. Put plainly: Methoxamine-induced constriction of isolated porcine intrarenal arteries. As to the method:
as §1, §2
Additionally, the effects of SUL-150 were investigated on stimulation with methoxamine, which is an alternative α1 adrenoceptor agonist.

A further test has as its system EGFR transactivation. Put plainly: Phenylephrine-induced constriction of porcine intrarenal arteries pre-treated with EGFR blocker AG1478. The settings on record: AG1478 20 μM and SUL-150 50 μM. As to the method: Inhibition of EGF receptor (EGFR) transactivation is known to inhibit α1 adrenoceptor mediated constrictions (REF). Therefore, we investigated the role of EGFR transactivation in SUL-150 mediated inhibition of vasoconstriction. For this, porcine intrarenal arteries were pre-treated with the EGFR blocker AG1478 (FIG. 3). First, an initial measurement was performed to determine the dose of AG1478 which would cause maximal inhibition of vascular constriction induced by PE (FIG. 3A). Subsequently, isolated arteries were treated with AG1478 (20 μM) and SUL-150 (50 μM) and studied for PE-induced vasoconstriction.

Marks after values point to notes of the source that are not given here.

On to `Cc1c(C)c2c(c(C)c1O)CC[C@](C)(C(=O)N1CCNCC1)O2` [SUL-150, (R)(6-hydroxy-2,5,7,8-tetramethylchroman-2-yl)(piperazin-1-yl)methanone], for which the “logEC50 of phenylephrine-induced constriction responses” value was −5.11 ± 0.09* in the test on α1 adrenoceptor [1] (10 μM test compound), −5.06 ± 0.06* in the test with α1 adrenoceptor [1] (30 μM test compound) and −4.44 ± 0.09* in the test on α1 adrenoceptor [1] (100 μM test compound). Also, the “logEC50 of phenylephrine-induced calcium influx, α1B” value is recorded as −7.51 ± 0.08 in test [2] (10 μM test compound), −7.24 ± 0.07 in test [2] (30 μM test compound) and −6.72 ± 0.08 in test [2] (100 μM test compound). Besides, in test [2] (in words), the “effect on PE-induced calcium transients, α1 adrenoceptor subtype B” value is on record as “shifted dose response curves rightwards”. At α1A adrenoceptor, the “potency in displacing the radioligand compared to SUL-151” value was “more potent”. Further, in the test on α1 adrenoceptor [3] (SUL-150 pre-treatment (30 μM and 100 μM), intact endothelium), the “effect on dose response curves to methoxamine” value is listed as “shifted rightward”. Besides, the “effect on methoxamine induced constriction after removal of the endothelium” value in the test on α1 adrenoceptor [3] (endothelium-denuded rings) is on record as “did not abrogate the effects of SUL-150”. The “effect on PE-mediated constriction on top of AG1478” value in the test on EGFR transactivation is “additional inhibitory effect”.
